Reference: patent US6426369B1, “Oxethazaine as antimicrobial agent” (Eisai Co., Ltd., priority 1997, dated 2002)

System: H. pylori
Assay: Antimicrobial activity test 6: oxethazaine in combination with an antibiotic (AMPC, CAM, RXM), checker board method
Assay type: cell-based, Helicobacter pylori
Parameters: key to growth of H. pylori: “−” indicates the inhibited growth of H. pylori (presence of antimicrobial activity); “+” indicates the growth of H. pylori (absence of antimicrobial activity)
Conditions: for growth of H. pylori: oxethazaine μg/ml: 100, 50, 25, 12.5, 6.25, 3.13, 0
Source text: The effect of combined use with amoxicillin (AMPC), clarithromycin (CAM) or roxithromycin (RXM) was examined in the same manner as in antimicrobial activity test 1, using the checker board method.

[1] = combined use with oxethazaine, out of 15 strains (AMPC), 21 strains (CAM), 22 strains (RXM)

CC[C@H]1OC(=O)[C@H](C)[C@@H](O[C@H]2C[C@@](C)(OC)[C@@H](O)[C@H](C)O2)[C@H](C)[C@@H](O[C@@H]2O[C@H](C)C[C@H](N(C)C)[C@H]2O)[C@](C)(O)C[C@@H](C)/C(=N\OCOCCOC)[C@H](C)[C@@H](O)[C@]1(C)O [roxithromycin]
additive effect, number of strains [1]: 19 strains/ | synergism, number of strains [1]: 4 strains/ | growth of H. pylori (strain EH 12, RXM 0.05 μg/ml): + | growth of H. pylori (strain EH 12, RXM 0.1 μg/ml): + | growth of H. pylori (strain EH 12, RXM 0.2 μg/ml): − | growth of H. pylori (strain EH 12, RXM 0.4 μg/ml): − | growth of H. pylori (strain EH 12, RXM 0.8 μg/ml): − | growth of H. pylori (strain EH 12, RXM 1.56 μg/ml): − | growth of H. pylori (strain EH 12, RXM 3.13 μg/ml): − | growth of H. pylori (strain EH 12, RXM 6.25 μg/ml): − | growth of H. pylori (strain EH 12, RXM 12.5 μg/ml): − | growth of H. pylori (strain EH 12, RXM 25 μg/ml): − | growth of H. pylori (strain EH 12, RXM 50 μg/ml): − | growth of H. pylori (strain EH 12, RXM 100 μg/ml): − | growth of H. pylori (strain EH 13, RXM 0.05 μg/ml): + | growth of H. pylori (strain EH 13, RXM 0.1 μg/ml): + | growth of H. pylori (strain EH 13, RXM 0.2 μg/ml): − | growth of H. pylori (strain EH 13, RXM 0.4 μg/ml): − | growth of H. pylori (strain EH 13, RXM 0.8 μg/ml): − | growth of H. pylori (strain EH 13, RXM 1.56 μg/ml): − | growth of H. pylori (strain EH 13, RXM 3.13 μg/ml): − | growth of H. pylori (strain EH 13, RXM 6.25 μg/ml): − | growth of H. pylori (strain EH 13, RXM 12.5 μg/ml): − | growth of H. pylori (strain EH 13, RXM 25 μg/ml): − | growth of H. pylori (strain EH 13, RXM 50 μg/ml): − | growth of H. pylori (strain EH 13, RXM 100 μg/ml): − | growth of H. pylori (strain NCTC11637, RXM 0.05 μg/ml): + | growth of H. pylori (strain NCTC11637, RXM 0.1 μg/ml): + | growth of H. pylori (strain NCTC11637, RXM 0.2 μg/ml): − | growth of H. pylori (strain NCTC11637, RXM 0.4 μg/ml): − | growth of H. pylori (strain NCTC11637, RXM 0.8 μg/ml): − | growth of H. pylori (strain NCTC11637, RXM 1.56 μg/ml): − | growth of H. pylori (strain NCTC11637, RXM 3.13 μg/ml): − | growth of H. pylori (strain NCTC11637, RXM 6.25 μg/ml): − | growth of H. pylori (strain NCTC11637, RXM 12.5 μg/ml): − | growth of H. pylori (strain NCTC11637, RXM 25 μg/ml): − | growth of H. pylori (strain NCTC11637, RXM 50 μg/ml): − | growth of H. pylori (strain NCTC11637, RXM 100 μg/ml): − | growth of H. pylori (strain NCTC11639, RXM 0.05 μg/ml): + | growth of H. pylori (strain NCTC11639, RXM 0.1 μg/ml): + | growth of H. pylori (strain NCTC11639, RXM 0.2 μg/ml): + | growth of H. pylori (strain NCTC11639, RXM 0.4 μg/ml): + | growth of H. pylori (strain NCTC11639, RXM 0.8 μg/ml): − | growth of H. pylori (strain NCTC11639, RXM 1.56 μg/ml): − | growth of H. pylori (strain NCTC11639, RXM 3.13 μg/ml): − | growth of H. pylori (strain NCTC11639, RXM 6.25 μg/ml): − | growth of H. pylori (strain NCTC11639, RXM 12.5 μg/ml): − | growth of H. pylori (strain NCTC11639, RXM 25 μg/ml): − | growth of H. pylori (strain NCTC11639, RXM 50 μg/ml): − | growth of H. pylori (strain NCTC11639, RXM 100 μg/ml): −
